Assay results: publication PMC2263054, “Functional evolution of the vitamin D and pregnane X receptors” (BMC Evolutionary Biology, 2007)

Legend:
[1] = test system: ethoxyresorufin O-deethylase (EROD) activity (CYP1A-like activity); assay: EROD assay in zebrafish primary hepatocytes; conditions: zebrafish primary hepatocytes; DIM at concentrations of 2 μM and greater
Procedure: (§1) The cells are cultured at 26°C in ambient atmosphere.

[2] = test system: testosterone 6β-hydroxylation activity (CYP3A-like activity); assay: testosterone hydroxylation (HPLC) in zebrafish primary hepatocytes; conditions: zebrafish primary hepatocytes; calcitriol 1–500 nM
Procedure: as §1
(§2) 100 μL of sample, calibration standard, or quality material standard were pipetted into separate microcentrifuge tubes and mixed with 100 μL of methanol. Samples were vortexed and centrifuged at 13,000 rpm for 4 min. The supernatant was then injected into the HPLC.
(§3) The flow rate was 1.2 mL/min and total run time was 25 min.

[3] = test system: 6β- and 12α-hydroxylation of testosterone; assay: testosterone hydroxylation (HPLC) in African clawed frog primary hepatocytes; type: cell-based, Xenopus laevis; conditions: relative to vehicle control
Procedure: Xenopus laevis primary hepatocytes were cultured by a protocol adapted from a published report. Frogs are sacrificed with MS-222, rinsed with 70% ethanol, and the liver lobes perfused via the heart, initially with 375 mL Barth (88 mM NaCl, 1 mM K2SO4, and 10 mM HEPES-NaOH, pH 7.4) containing 0.82 mM MgCl2 and 0.1 mg/mL heparin, and then with 25 mL Barth containing 2.22 mM Ca(NO3)2, 2.74 mM CaCl2, and 200 U/mL type I collagenase (Worthington Chemicals, Lakewood, NJ). Livers are minced to fine pieces in 12.5 mL Barth-collagenase solution and then incubated for 10 min at room temperature, periodically disaggregating the liver pieces with a Pasteur pipette. The liver cells are then placed on a shaking incubator for 5 min at room temperature, followed by another 10 min of periodic pipetting to complete disaggregation. Cells are then filtered through a 130 μm Nitex nylon mesh (Fisher Scientific), following by spinning at 500 g for 5 min at 4°C. The supernatant is then aspirated and diluted to 50 mL with Barth plus MgCl2 and then allowed to settle while cooled in ice for 30 min. The supernatant is removed, and the cellular pellet is resuspended and subjected to one more round of nylon mesh filtration, dilution in Barth plus MgCl2, and settling while cooled in ice. The supernatant is removed and the remaining cells are washed once with Barth plus MgCl2 and then centrifuged at 500 g for 5 min at 4°C. The cells are then resuspended in 0.6 × Coon's Modified Ham's F-12 medium (Invitrogen) supplemented with 0.1 × Barth (88 mM NaCl, 1 mM K2SO4, 10 mM HEPES), 200 U/mL penicillin G, 100 μg/mL streptomycin sulfate, 2 mM glutamine, 0.2% glucose, and 10 μg/mL bovine insulin (Calbiochem), with the final pH adjusted to 7.5. […] Cells are cultured at 20°C in ambient atmosphere.
Testosterone metabolites were identified and quantitated by HPLC. […] The supernatant was then injected into the HPLC.

[4] = test system: testosterone 6β-hydroxylation; assay: testosterone hydroxylation (HPLC) in sea lamprey primary hepatocytes; type: cell-based; conditions: concentration ranges per compound
Procedure: as §2, §3

EROD activity = assay: EROD assay in sea lamprey primary hepatocytes; conditions: 24–48 hr exposure
PXR = assay: zebrafish in vivo liver transcription, semi-quantitative RT-PCR: PXR; conditions: zebrafish, 15 mg/kg intraperitoneally, single dose, 48 hr
Procedure: (§4) Adult zebrafish were purchased from a commercial fish supplier and acclimatized for at least two-weeks in 20 L tanks with flow-through freshwater at 22°C. A single dose of 15 mg/kg of 5α-cyprinol, 5β-cyprinol 27-sulfate, 5α-scymnol or 5β-scymnol-27 sulfate, dissolved in saline, was injected intraperitoneally. A control group was injected with saline. After 48 hr, the animals were decapitated and livers of three fish (n = 5 each group) were removed, pooled and weighed, totalizing 15 fish per group. Fish were not fed throughout the experimental period. […].
(§5) To study the transcription of CYP3C1, ABCB5, PXR, GAPDH and β-actin genes in zebrafish, initial fragments of these genes were identified (Genbank: AW202769, Genbank: BQ284593, Genbank: AAM22215, Genbank: BC083506, Genbank: AF057040, respectively). The PCR primers for CYP3C1 were designed using MacVector Software and primers for MDR1 were designed using Primer 3 Software (Whitehead Institute for Biomedical Research; [75]). Primer pairs for amplifying CYP3C1 fragment were 5'-[…]-3' (sense) and 5'-[…]-3' (antisense) and for amplifying ABCB5 were 5'-[…]-3' (sense) and 5'-[…]-3' (antisense). The PCR primers for PXR were 5'-[…]-3' (sense) and 5'-[…]-3' (antisense), for amplifying GAPDH were 5'-[…]-3' (sense) and 5' […] 3' (antisense) and for β-actin were 5'-[…]-3' (sense) and 5'-[…]-3' (antisense). RNA was isolated using Trizol (Invitrogen) according to manufacturer's instructions. Purity and concentration of RNA of each sample were verified at 260 nm. The RNA integrity was checked by non-denaturing gel electrophoresis using 1 μg of total RNA in each sample.
(§6) Two micrograms of total RNA were reversed transcribed using Ominiscript RT Kit (Qiagen, Valencia, CA, USA). cDNA concentration was checked at 260 nm, and the amount adjusted to 1 μg to perform semi-quantitative RT-PCR. The expected size of the PXR, Cyp3C1, abcb5, GAPDH and β-actin fragments were 577, 477, 218, 234 and 550 bp, respectively. Biotools DNA polymerase (Biotools B&M Labs, S.A., Madrid, Spain) kit was used for the PCR reaction using a thermocycler Personal Mastercycler (Eppendörf) with the following PCR program: 5 cycles of 94°C for 5 s, 72°C for 35 s; 5 cycles of 94°C for 5 s, 70°C for 10 s, 72°C for 35 s; and 23, 24, 35, 15 and 24 cycles (PXR, Cyp3C1, abcb5, GAPDH and β-actin, respectively) of 94°C for 5 s, 61, 54, 48, 49 and 61°C for 10 s (PXR, Cyp3C1, abcb5, GAPDH and β-actin, respectively), and 72°C for 35 s. The PXR, CYP3C1, ABCB5 and GAPDH transcript levels were quantified using Gel-Quant™ (Multiplexed Biotechologies) and β-actin was used to normalize the data. The Shapiro-Wilk W test was used to evaluate normality. When data were parametric the analysis was performed using Student t test; otherwise Mann Whitney U test was applied. […]

Sea lamprey VDR = target: T1, Sea lamprey VDR (Petromyzon marinus, UniProt Q7ZZY9); type: cell-based; conditions: screening for activators, at least three concentrations of each drug
T1 sequence (Q7ZZY9 92-406): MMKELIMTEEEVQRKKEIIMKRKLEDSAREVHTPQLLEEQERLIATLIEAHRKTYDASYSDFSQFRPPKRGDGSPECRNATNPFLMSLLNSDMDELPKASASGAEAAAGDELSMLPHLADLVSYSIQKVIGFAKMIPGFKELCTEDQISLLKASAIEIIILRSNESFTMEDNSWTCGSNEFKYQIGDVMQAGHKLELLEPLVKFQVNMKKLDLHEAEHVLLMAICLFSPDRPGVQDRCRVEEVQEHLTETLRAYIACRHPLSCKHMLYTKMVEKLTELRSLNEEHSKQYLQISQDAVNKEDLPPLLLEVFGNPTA

β-actin = assay: zebrafish in vivo liver transcription, semi-quantitative RT-PCR: β-actin; conditions: zebrafish, 15 mg/kg intraperitoneally, single dose, 48 hr
Procedure: as §4, §5, §6

CYP3C1 = assay: zebrafish in vivo liver transcription, semi-quantitative RT-PCR: CYP3C1; conditions: zebrafish, 15 mg/kg intraperitoneally, single dose, 48 hr
Procedure: as §4, §5, §6

Zebrafish VDR = target: T2, Zebrafish VDR (Danio rerio, UniProt Q9PTN2); assay: luciferase reporter transactivation assay in HepG2-NTCP cells, GAL4/zfVDR LBD chimera with tk-UAS-Luc; type: cell-based; conditions: screening for activators, at least three concentrations of each drug
T2 sequence (Q9PTN2 121-453): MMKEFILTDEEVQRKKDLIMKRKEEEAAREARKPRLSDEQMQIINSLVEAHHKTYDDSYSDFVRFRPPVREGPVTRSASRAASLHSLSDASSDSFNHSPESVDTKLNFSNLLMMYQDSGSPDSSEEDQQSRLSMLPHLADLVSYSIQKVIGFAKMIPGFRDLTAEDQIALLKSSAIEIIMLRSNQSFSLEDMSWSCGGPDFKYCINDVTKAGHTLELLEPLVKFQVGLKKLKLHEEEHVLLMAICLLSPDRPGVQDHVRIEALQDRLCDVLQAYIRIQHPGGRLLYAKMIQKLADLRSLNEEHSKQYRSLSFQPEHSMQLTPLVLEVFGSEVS

[5] = test system: glyceraldehyde 3-phosphate dehydrogenase (GAPDH); assay: zebrafish in vivo liver transcription, semi-quantitative RT-PCR: GAPDH; conditions: 15 mg/kg intraperitoneally, single dose, 48 hr
Procedure: Adult zebrafish were purchased from a commercial fish supplier and acclimatized for at least two-weeks in 20 L tanks with flow-through freshwater at 22°C. A single dose of 15 mg/kg of 5α-cyprinol, 5β-cyprinol 27-sulfate, 5α-scymnol or 5β-scymnol-27 sulfate, dissolved in saline, was injected intraperitoneally. A control group was injected with saline. After 48 hr, the animals were decapitated and livers of three fish (n = 5 each group) were removed, pooled and weighed, totalizing 15 fish per group. Fish were not fed throughout the experimental period.
as §5, with “The PCR primers for CYP3C1 were designed using MacVector Software and primers for MDR1 were designed using Primer 3 Software (Whitehead Institute for Biomedical Research; [75]).” left out, “Purity and concentration of RNA of each sample were verified at 260 nm.” left out
The PXR, CYP3C1, ABCB5 and GAPDH transcript levels were quantified using Gel-Quant™ (Multiplexed Biotechologies) and β-actin was used to normalize the data. The Shapiro-Wilk W test was used to evaluate normality. When data were parametric the analysis was performed using Student t test; otherwise Mann Whitney U test was applied.

zebrafish PXR = conditions: ref [29],[53]; cited from earlier work
[6] = test system: MDR1 (tentatively classified as ABCB5 in zebrafish); assay: zebrafish in vivo liver transcription, semi-quantitative RT-PCR: MDR1; conditions: zebrafish, 15 mg/kg intraperitoneally, single dose, 48 hr
Procedure: as §4, §5, §6

Xenopus laevis VDR = target: T3, Xenopus laevis VDR (Xenopus laevis, UniProt O13124); assay: luciferase reporter transactivation assay in HepG2-NTCP cells, GAL4/xlVDR LBD chimera with tk-UAS-Luc; type: cell-based; conditions: screening for activators, at least three concentrations of each drug
T3 sequence (O13124 90-422): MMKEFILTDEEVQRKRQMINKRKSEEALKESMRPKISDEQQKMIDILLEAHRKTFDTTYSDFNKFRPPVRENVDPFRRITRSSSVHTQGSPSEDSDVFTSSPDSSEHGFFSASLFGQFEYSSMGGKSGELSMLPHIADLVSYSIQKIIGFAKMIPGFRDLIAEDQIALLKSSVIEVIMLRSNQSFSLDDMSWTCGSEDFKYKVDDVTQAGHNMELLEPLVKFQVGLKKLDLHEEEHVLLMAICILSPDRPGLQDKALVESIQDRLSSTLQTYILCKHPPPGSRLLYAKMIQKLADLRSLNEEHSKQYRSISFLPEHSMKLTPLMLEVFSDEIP

C=C1/C(=C\C=C2/CCC[C@]3(C)[C@@H]([C@H](C)CCCC(C)(C)O)CC[C@@H]23)C[C@@H](O)C[C@@H]1O [1,25-(OH)2-Vitamin D3, 1α,25-(OH)2-vitamin D3]
effect on EROD activity [1]: found not to affect EROD activity
effect on 6β-hydroxylation of testosterone [2]: did not increase 6β-hydroxylation of testosterone
effect on 6β- and 12α-hydroxylation of testosterone [3]: neither activity was substantially increased relative to vehicle control
effect on testosterone 6β-hydroxylation [4]: None of these compounds produced significant increases in testosterone 6β-hydroxylation
effect on EROD activity (EROD activity): did not alter EROD activity

CCOC(=O)c1cccc(N)c1 [3-aminoethylbenzoate]
effect on 6β- and 12α-hydroxylation of testosterone [3]: neither activity was substantially increased relative to vehicle control

CC(CCC(O)C(CO)COS(=O)(=O)O)C1CCC2C3C(O)CC4CC(O)CCC4(C)C3CC(O)C12C (stereo not drawn) [5β-scymnol 27-sulfate]
liver transcription of PXR (PXR): 0.75 ± 0.33 arbitrary units normalized to β-actin
Effect on sea lamprey VDR (Sea lamprey VDR): No effect
liver transcription of β-actin (β-actin): 39.3 ± 17.5 arbitrary units
liver transcription of CYP3C1 (CYP3C1): 1.33 ± 0.58 arbitrary units normalized to β-actin
Effect on zebrafish VDR (Zebrafish VDR): No effect
liver transcription of GAPDH [5]: 1.08 ± 0.50 arbitrary units normalized to β-actin
activity at recombinant zebrafish PXR (zebrafish PXR): weaker activator of recombinant zebrafish PXR
liver transcription of MDR1 (ABCB5) [6]: 1.50 ± 0.58 arbitrary units normalized to β-actin
Effect on Xenopus laevis VDR (Xenopus laevis VDR): No effect

C[C@@H]1C[C@H]2[C@@H]3CCC4=CC(=O)C=C[C@]4(C)[C@@]3(F)[C@@H](O)C[C@]2(C)[C@@]1(O)C(=O)CO [Dexamethasone]
effect on 6β- and 12α-hydroxylation of testosterone [3]: neither activity was substantially increased relative to vehicle control
effect on testosterone 6β-hydroxylation [4]: None of these compounds produced significant increases in testosterone 6β-hydroxylation
